From patent US20250179059A1 (The Regents of the University of California, priority 2021, published 2025)
Read-outs that look alike come from different tables or passages of the source.

What was measured:
[1] = target: T1, human BRD4 bromodomain II (Homo sapiens, UniProt O60885); assay: Bromodomain binding assay (AlphaScreen), BRD4 BDII
T1 construct: human BRD4 bromodomain II [based on Genbank NM_058243, residues 349-460]; host or cells: E. coli
Summary of the method: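 AlphaScreen competition with biotinylated H4 peptide (aa 1-21, K5/K8/K12/K16Ac), using nickel-chelate acceptor and streptavidin donor beads. Targets were His6-BRD4 BDI (44-170) or BDII (349-460), with a 30 min compound preincubation over a 10-point 3-fold series. IC50 was fitted from percentage peptide binding.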

[2] = test system: human SKM-1 acute myeloid leukemia cells; assay: SKM-1 antiproliferation cell-based assay (ATPlite); details: Homo sapiens
Summary of the method: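 Log-phase cells in RPMI 1640/15% FBS were seeded at 34722 cells/mL and exposed for 4 days to nine-concentration DMSO serial dilutions in triplicate. Viability was read as ATP luminescence (ATPlite 1step), and IC50 values came from variable-slope non-linear regression.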

[3] = AlphaScreen assay, Table C2, read-out: BRD4 BDII IC50
[4] = SKM-1, 96 h, SKM-1 antiproliferation assay, 4 days, Table C2
[5] = BRD4 BDII AlphaScreen assay, read-out: BRD4 BD2 IC50
[6] = SKM-1, SKM-1 antiproliferation assay

Structure (SMILES)	IC50 [1, 3]	GI50 [2, 4]	IC50 [1, 5]	GI50 [2, 6]
CN1CCN(c2ccc(-c3cccc(-c4ccnc(N5CCC(N)CC5)c4)c3O)cc2Cl)C1=O [Example 300, 1-(3′-(2-(4-aminopiperidin-1-yl)pyridin-4-yl)-3-chloro-2′-hydroxy-[1,1′-biphenyl]-4-yl)-3-methylimidazolidin-2-one]	1 to 10 nM	30 to 300 nM	–	–
Cc1cc(-c2ccnc(N3CCN[C@H](C)C3)c2)c(O)c(-c2ccc(-n3ccn(C)c3=O)c(F)c2)c1 [Example 546, (R)-1-(3-fluoro-2′-hydroxy-5′-methyl-3′-(2-(3-methylpiperazin-1-yl)pyridin-4-yl)-[1,1′-biphenyl]-4-yl)-3-methyl-1H-imidazol-2(3H)-one]	0.01 to 1 nM	0.3 to 30 nM	–	–
CC(=O)NC1(C)CN(c2cc(-c3cc(F)cc(-c4ccc(-n5ccn(C)c5=O)c(Cl)c4)c3O)ccn2)C1 [Example 768, N-(1-(4-(3′-chloro-5-fluoro-2-hydroxy-4′-(3-methyl-2-oxo-2,3-dihydro-1H-imidazol-1-yl)-[1,1′-biphenyl]-3-yl)pyridin-2-yl)-3-methylazetidin-3-yl)acetamide]	1 to 10 nM	30 to 300 nM	–	–
C[C@@H]1CN(c2cc(-c3cc(F)cc(-c4ccc(-n5ccn(C)c5=O)c(Cl)c4)c3O)cc3c2ncn3C)CCN1 [Example 576]	0.01 to 1 nM	0.3 to 30 nM	–	–
CC(=O)Nc1ccc(-c2cc(F)cc(-c3cccc(N4CCN(C(C)(C)C)CC4)c3)c2O)cn1 [Example 908, N-(5-(3′-(4-(tert-butyl)piperazin-1-yl)-5-fluoro-2-hydroxy-[1,1′-biphenyl]-3-yl)pyridin-2-yl)acetamide]	–	–	> 100 nM	> 3000 nM
Cn1ccn(-c2ccc(-c3cc(F)cc(-c4ccnc(N5CCC(C)(O)C5)c4)c3O)cc2Cl)c1=O (stereo not drawn) [Example 685, 1-(3-chloro-5′-fluoro-2′-hydroxy-3′-(2-(3-hydroxy-3-methylpyrrolidin-1-yl)pyridin-4-yl)-[1,1′-biphenyl]-4-yl)-3-methyl-1H-imidazol-2(3H)-one]	0.01 to 1 nM	0.3 to 30 nM	–	–
CC(=O)Nc1ccc(-c2cc(F)cc(-c3cccc(N4CCN(C(C)(C)C)CC4)c3)c2O)cc1Cl [Example 919, N-(3″-(4-(tert-butyl)piperazin-1-yl)-3-chloro-5′-fluoro-2′-hydroxy-[1,1′:3′,1″-terphenyl]-4-yl)acetamide]	–	–	1 to 10 nM	300 to 3000 nM
Cn1ccn(-c2ccc(-c3cc(F)cc(-c4ccnc(N5CCNC6(CC6)C5)c4)c3O)cc2Cl)c1=O [Example 559, 1-(3′-(2-(4,7-diazaspiro[2.5]octan-7-yl)pyridin-4-yl)-3-chloro-5′-fluoro-2′-hydroxy-[1,1′-biphenyl]-4-yl)-3-methyl-1H-imidazol-2(3H)-one]	0.01 to 1 nM	30 to 300 nM	–	–
CN1C2CCC1CN(c1cncc(-c3cc(F)cc(-c4ccc(-n5ccn(C)c5=O)c(Cl)c4)c3O)c1)C2 [Example 514, 1-(3-chloro-5′-fluoro-2′-hydroxy-3′-(5-(8-methyl-3,8-diazabicyclo[3.2.1]octan-3-yl)pyridin-3-yl)-[1,1′-biphenyl]-4-yl)-3-methyl-1H-imidazol-2(3H)-one]	1 to 10 nM	0.3 to 30 nM	–	–
[2H]C([2H])([2H])n1ccn(-c2ccc(-c3cc(F)cc(-c4ccnc(N5CCC[C@H](NC)C5)c4)c3O)cc2Cl)c1=O [Example 456, (S)-1-(3-chloro-5′-fluoro-2′-hydroxy-3′-(2-(3-(methylamrno)piperidin-1-yl)pyridin-4-yl)-[1,1′-biphenyl]-4-yl)-3-deuteromethyl-1H-imidazol-2(3H)-one]	0.01 to 1 nM	0.3 to 30 nM	–	–
CC(C)N1CCCC12CCN(c1cc(-c3cc(F)cc(-c4ccc(-n5ccn(C)c5=O)c(Cl)c4)c3O)cnc1N)C2 (stereo not drawn) [Example 968, 1-(3′-(6-amino-5-(1-isopropyl-1,7-diazaspiro[4.4]nonan-7-yl)pyridin-3-yl)-3-chloro-5′-fluoro-2′-hydroxy-[1,1′biphenyl]-4-yl)-3-methyl-1H-imidazol-2(3H)-one]	–	–	1 to 10 nM	0.3 to 30 nM
O=c1n(-c2ccc(-c3cc(F)cc(-c4ccnc(N5CCNCC5)c4)c3O)cc2Cl)ccn1C(F)F [Example 468, 1-(3-chloro-5′-fluoro-2′-hydroxy-3′-(2-(piperazin-1-yl)pyridin-4-yl)-[1,1′-biphenyl]-4-yl)-3-(difluoromethyl)-1H-imidazol-2(3H)-one]	1 to 10 nM	300 to 3000 nM	–	–
CN(C)C1(c2cccc(-c3cc(F)cc(-c4ccc(-n5ccn(C)c5=O)c(Cl)c4)c3O)c2)CC1 [Example 788, 1-(3-chloro-3″-(1-(dimethylamino)cyclopropyl)-5′-fluoro-2′-hydroxy-[1,1′:3′,1″-terphenyl]-4-yl)-3-methyl-1H-imidazol-2(3H)-one]	10 to 100 nM	300 to 3000 nM	–	–
Cn1ccn(-c2ccc(-c3cc(F)cc(-c4ccnc(N5CC6(CC6)[C@@](C)(O)C5)c4)c3O)cc2Cl)c1=O [Example 816]	0.01 to 1 nM	0.3 to 30 nM	–	–
Cn1ccn(-c2ccc(-c3cnnc(-c4cccc(N5CCN(C(C)(C)C)CC5)c4)c3O)cc2Cl)c1=O [Example 1020, 1-(4-(6-(3-(4-(tert-Butyl)piperazin-1-yl)phenyl)-5-hydroxypyridazin-4-yl)-2-chlorophenyl)-3-methyl-1H-imidazol-2(3H)-one]	–	–	> 100 nM	300 to 3000 nM
Cn1ccn(-c2ccc(-c3cc(F)cc(-c4cc(N5CCNCC5)c5cc[nH]c5c4)c3O)cc2Cl)c1=O [Example 479, 1-(3-chloro-5′-fluoro-2′-hydroxy-3′-(4-(piperazin-1-yl)-1H-indol-6-yl)-[1,1′-biphenyl]-4-yl)-3-methyl-1H-imidazol-2(3H)-one]	1 to 10 nM	0.3 to 30 nM	–	–
Cn1ccn(-c2ccc(-c3cc(F)cc(-c4ccnc(N5CCC(C)(N6CCCC6)C5)c4)c3O)cc2Cl)c1=O (stereo not drawn) [Example 822, 1-(3-chloro-5′-fluoro-2′-hydroxy-3′-(2-(3′-methyl-[1,3′-bipyrrolidin]-1′-yl)pyridin-4-yl)-[1,1′-biphenyl]-4-yl)-3-methyl-1H-imidazol-2(3H)-one]	1 to 10 nM	0.3 to 30 nM	–	–
C[C@H]1CCCN(c2cc(-c3cc(F)cc(-c4ccc(-n5ccn(C)c5=O)c(Cl)c4)c3O)cc3[nH]ncc23)C1 [Example 596, (S)-1-(3-chloro-5′-fluoro-2′-hydroxy-3′-(4-(3-methylpiperidin-1-yl)-1H-indazol-6-yl)-[1,1′-biphenyl]-4-yl)-3-methyl-1H-imidazol-2(3H)-one]	10 to 100 nM	300 to 3000 nM	–	–
Cc1ccc(-c2cc(F)cc(-c3ccc(-n4ccn(C)c4=O)c(Cl)c3)c2O)cc1C(N)=O [Example 766]	1 to 10 nM	30 to 300 nM	–	–
Cn1ccn(-c2ccc(-c3cc(F)cc(-c4cc(N5CCN6CCCC6C5)c5cn[nH]c5c4)c3O)cc2Cl)c1=O (stereo not drawn) [Example 606, 1-(3-chloro-5′-fluoro-3′-(4-(hexahydropyrrolo[1,2-a]pyrazin-2(1H)-yl)-1H-indazol-6-yl)-2′-hydroxy-[1,1′-biphenyl]-4-yl)-3-methyl-1H-imidazol-2(3H)-one]	0.01 to 1 nM	0.3 to 30 nM	–	–
Cn1ccn(-c2ccc(-c3cc(F)cc(-c4ccnc(N5CC6CCC(C5)C6(C)N)c4)c3O)cc2Cl)c1=O (stereo not drawn) [Example 757, 1-(3′-(2-(8-amino-8-methyl-3-azabicyclo[3.2.1]octan-3-yl)pyridin-4-yl)-3-chloro-5′-fluoro-2′-hydroxy-[1,1′-biphenyl]-4-yl)-3-methyl-1H-imidazol-2(3H)-one]	0.01 to 1 nM	30 to 300 nM	–	–
Cn1ccn(-c2ccc(-c3cc(F)cc(-c4cc(N5CCC[C@@H](N)C5)c5cn[nH]c5c4)c3O)cc2Cl)c1=O [Example 586, (R)-1-(3′-(4-(3-aminopiperidin-1-yl)-1H-indazol-6-yl)-3-chloro-5′-fluoro-2′-hydroxy-[1,1′-biphenyl]-4-yl)-3-methyl-1H-imidazol-2(3H)-one]	1 to 10 nM	0.3 to 30 nM	–	–
Cn1ccn(-c2ccc(-c3cc(F)cc(-c4ccnc(N5CC[C@@H](O)C5)c4)c3O)cc2Cl)c1=O [Example 627, (R)-1-(3-chloro-5′-fluoro-2′-hydroxy-3′-(2-(3-hydroxypyrrolidin-1-yl)pyridin-4-yl)-[1,1′-biphenyl]-4-yl)-3-methyl-1H-imidazol-2(3H)-one]	0.01 to 1 nM	30 to 300 nM	–	–
Cn1nnn(-c2ccc(-c3cc(F)cc(-c4ccnc(N5CCNCC5)c4)c3O)cc2Cl)c1=O [Example 520, 1-(3-chloro-5′-fluoro-2′-hydroxy-3′-(2-(piperazin-1-yl)pyridin-4-yl)-[1,1′-biphenyl]-4-yl)-^4-methyl-1H-tetrazol-5(4H)-one]	10 to 100 nM	300 to 3000 nM	–	–
CN1CCN(c2ccc(-c3cccc(-c4cc(CN)cc(N5CCNCC5)c4)c3O)cc2Cl)C1=O [Example 326, 1-(3″-(aminomethyl)-3-chloro-2′-hydroxy-5″-(piperazin-1-yl)-[1,1′:3′,1″-terphenyl]-4-yl)-3-methylimidazolidin-2-one]	10 to 100 nM	300 to 3000 nM	–	–
Cn1ccn(-c2ccc(-c3cc(F)cc(-c4ccnc(N5CCC(C)(NCC(F)(F)F)C5)c4)c3O)cc2Cl)c1=O (stereo not drawn) [Example 895]	–	–	1 to 10 nM	30 to 300 nM
COc1cc(-c2cc(F)cc(-c3ccc(-n4ccn(C)c4=O)c(Cl)c3)c2O)cc(N2CCN(C(C)(C)C)CC2)n1 [Example 732, 1-(3′-(2-(4-(tert-butyl)piperazin-1-yl)-6-methoxypyridin-4-yl)-3-chloro-5′-fluoro-2′-hydroxy-[1,1′-biphenyl]-4-yl)-3-methyl-1H-imidazol-2(3H)-one]	1 to 10 nM	0.3 to 30 nM	–	–
